For this experiment, the target named is T1, human GlyT-1b (Homo sapiens, UniProt P48067).
T1 construct: expressed in transfected cells
T1 sequence (P48067 1-652 isoform P48067-3): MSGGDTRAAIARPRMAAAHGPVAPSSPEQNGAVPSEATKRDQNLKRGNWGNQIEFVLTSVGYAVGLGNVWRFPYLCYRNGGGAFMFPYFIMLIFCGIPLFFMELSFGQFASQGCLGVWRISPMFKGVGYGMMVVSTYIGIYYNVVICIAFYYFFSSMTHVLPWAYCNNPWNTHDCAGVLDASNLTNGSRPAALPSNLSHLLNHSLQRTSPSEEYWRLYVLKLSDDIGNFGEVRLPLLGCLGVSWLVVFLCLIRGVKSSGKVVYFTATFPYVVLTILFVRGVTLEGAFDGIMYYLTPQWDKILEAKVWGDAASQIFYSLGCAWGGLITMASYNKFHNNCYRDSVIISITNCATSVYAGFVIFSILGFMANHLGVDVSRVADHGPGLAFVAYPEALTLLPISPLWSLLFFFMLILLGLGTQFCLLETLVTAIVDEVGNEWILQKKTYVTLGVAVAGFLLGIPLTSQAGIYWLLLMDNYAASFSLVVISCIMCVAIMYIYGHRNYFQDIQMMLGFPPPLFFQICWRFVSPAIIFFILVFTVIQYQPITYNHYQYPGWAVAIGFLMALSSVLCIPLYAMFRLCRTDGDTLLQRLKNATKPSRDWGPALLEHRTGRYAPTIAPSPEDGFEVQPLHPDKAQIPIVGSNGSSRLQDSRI
The experiment is described as follows: [3H]-Glycine uptake in cells transfected with human GlyT-1b. The format is cell-based. Particulars: 6 min pre-incubation, 10 nM 3H-glycine, 15 min, read-out: IC50 GlyT-1b (Inhibition of Glycine Transport by hGlyT-). The protocol:
The compounds of the invention were tested in a well-recognised and reliable test measuring glycine uptake:
Cells transfected with the human GlyT-1b were seeded in 96 well plates. Prior to the experiment the cells were washed twice in HBS (10 mM Hepes-tris (pH 7.4), 2.5 mM KCl, 1 mM CaCl2, 2.5 mM MgSO4,) and pre-incubated with test compound for 6 minutes. Afterwards, 10 nM ^3H-glycine was added to each well and the incubation was continued for 15 minutes. The cells were washed twice in HBS. Scintillation fluid was added and the Plates were counted on a Trilux (Wallac) scintillation counter.

Results on 17 molecules are retold here after patent US6921774B2, “Compounds and their use as glycine transport inhibitors” (H. Lundbeck A/S, priority 2000, dated 2005).

Structures can show the parent of a compound that is named as a salt.

As to `Cc1ccc(C2(CCCN(C)CC(=O)O)OCc3ccc(Cl)cc32)cc1` (centres unmarked) [Compound 3n, N-{3-[6-chloro-1-(4-methylphenyl)-1,3-dihydroisobenzofuran-1-yl]-1-propyl}-N-methylglycine hydrochloride.], the IC50 (in general, the point on the concentration scale where inhibition reaches its midpoint) was determined as 9.6 µM. With `Cc1cc(C2(CCCN(C)CC(=O)O)OCc3cc(C#N)ccc32)ccc1F` (centres unmarked) [Compound 3t, N-{3-[5-cyano-1-(3-methyl-4-fluorophenyl)-1,3-dihydroisobenzofuran-1-yl]-1-propyl}-N-methylglycine hydrochloride.], the IC50 stood at 5.7 µM. In the case of `CN(CCC1(c2ccc(Cl)cc2)OC(C)(C)c2ccccc21)CC(=O)O` (centres unmarked) [Compound 3af, N-{2-[1-(4-Chloro-phenyl)-3,3-dimethyl-1,3-dihydro-isobenzofuran-1-yl]-ethyl}-N-methylglycine] it was 3.5 µM; in that of `CN(CCCC1(c2ccc(Cl)cc2)OCc2cc(Br)ccc21)CC(=O)O` (centres unmarked) [Compound 3ae, N-{3-[5-Bromo-1-(4-chlorophenyl)-1,3-dihydroisobenzofuran-1-yl]-1-propyl}-N-methylglycine], 4 µM; in that of `Cc1ccc(-c2ccc3c(c2)COC3(CCN(C)CC(=O)O)c2ccc(Cl)cc2)cc1` (centres unmarked) [Compound 3al, N-{3-[1-(4-Chloro-phenyl)-5-(4-methyl-phenyl)-1,3-dihydro-isobenzofuran-1-yl]-ethyl}-N-methyl-glycine], 2.2 µM. The same measure for `C[C@@H](C(=O)O)N(C)CCCC1(c2ccc(Cl)cc2)OCc2cc(Cl)ccc21` (some centres unmarked) [Compound 3l, N-{3-[5-chloro-1-(4-chlorophenyl)-1,3-dihydroisobenzofuran-1-yl]-1-propyl}-N-methylalanine hydrochloride]: 5.5 µM. For the molecule `CN(CCCC1(c2ccc(Cl)cc2)OCc2c(Cl)cccc21)CC(=O)O` (centres unmarked) [Compound 3k, N-{3-[4-chloro-1-(4-chlorophenyl)-1,3-dihydroisobenzofuran-1-yl]-1-propyl}-N-methylglycine hydrochloride.], the IC50 came to 4.1 µM. With `COc1ccc(C2(CCCN(C)CC(=O)O)OCc3cc(C#N)ccc32)cc1` (centres unmarked) [Compound 3v, N-{3-[5-cyano-1-(4-methoxyphenyl)-1,3-dihydroisobenzofuran-1-yl]-1-propyl}-N-methylglycine hydrochloride], the IC50 was 8.6 µM. In the case of “N-[2-(3-methyl-1-phenyl-indan-1-yl)-ethyl]-amino}-N-methyl alanine [Compound 3ak]” it was 2.2 µM; in that of `CN(CCC1(c2ccc(Cl)cc2)OCc2cc(-c3cccs3)ccc21)CC(=O)O` (centres unmarked) [Compound 4c, N-{3-[1-(4-Chloro-phenyl)-5-(2-thiophenyl)-1,3-dihydro-isobenzofuran-1-yl]-ethyl}-N-methyl-glycine], 1.2 µM; in that of `CN(CCCC1(c2ccc(Cl)cc2)CCc2cc(Cl)ccc21)CC(=O)O` (centres unmarked) [Compound 3z, N-{3-[5-Chloro-1-(4-chloro-phenyl)-indan-1-yl]-propyl}-N-methylglycine hydrochloride], 1.1 µM. Turning to `C[C@@H](C(=O)O)N(C)CCCC1(c2ccc(Cl)cc2)CCc2cc(Cl)ccc21` (some centres unmarked) [Compound 3aa, N-{3-[5-Chloro-1-(4-chloro-phenyl)-indan-1-yl]-propyl}-N-methylalanine hydrochloride], the IC50 is 0.47 µM. As to “N-{3-[1-(4-methylphenyl)-1,3-dihydroisobenzofuran-1-yl]-1-propyl}-N-methylglycine. hydrochloride [Compound 3f]”, the IC50 came out at 5.4 µM. In the case of `Cc1ccccc1-c1ccc2c(c1)COC2(CCN(C)CC(=O)O)c1ccc(Cl)cc1` (centres unmarked) [Compound 4j, N-{3-[1-(4-Chloro-phenyl)-5-(2-methyl-phenyl)-1,3-dihydro-isobenzofuran-1-yl]-ethyl}-N-methyl-glycine] it was 0.71 µM; in that of `CN(CCC1(c2ccc(Cl)cc2)OCc2cc(-c3cc(Cl)ccc3Cl)ccc21)CC(=O)O` (centres unmarked) [Compound 4k, N-{3-[1-(4-Chloro-phenyl)-5-(2,5-dichloro-phenyl)-1,3-dihydro-isobenzofuran-1-yl]-ethyl}-N-methyl-glycine], 0.95 µM; in that of `CN(CCCC1(c2ccc(Cl)cc2)OCc2ccc(Cl)cc21)CC(=O)O` (centres unmarked) [Compound 3m, N-{3-[6-chloro-1-(4-chlorophenyl)-1,3-dihydroisobenzofuran-1-yl]-1-propyl}-N-methylglycine hydrochloride.], 7.2 µM.

For the molecule `Cc1ccc(-c2ccc3c(c2)COC3(CCCN(C)CC(=O)O)c2ccc(Cl)cc2)cc1` (centres unmarked) [Compound 4d, N-{3-[1-(4-Chloro-phenyl)-5-(4-methyl-phenyl)-1,3-dihydro-isobenzofuran-1-yl]-propyl}-N-methyl-glycine], the concentration for half-maximal inhibition (IC50) was 1.5 µM.
